Inhibition data for one molecule are collected here from US10550118B2, “JAK inhibitors containing a 4-membered heterocyclic amide” (THERAVANCE BIOPHARMA R&D IP, LLC, priority 2017, dated 2020).

Usually inhibition stands for the relative decrease from the control value, in per cent.

This experiment relates to IFNγ induced CXCL10 and CXCL9 secretion in EpiAirway tissue cultures. Description: Inhibition of IFNγ induced chemokines CXCL9 and CXCL10 in human 3D airway cultures. It is filed as cell-based. To be noted: 192 h, day 8, ±STDV. On the procedure: Assay 7: Inhibition of IFNγ and IL-27 Induced Chemokines CXCL9 and CXCL10 in Human 3D Airway Cultures
EpiAirway tissue cultures were obtained from Mattek (AIR-100). Cultures were derived from asthmatic donors. In a cell culture insert, human derived tracheal/bronchial epithelial cells were grown and differentiated on a porous membrane support, allowing an air-liquid interface with warmed culture medium below the cells and a gaseous test atmosphere above. Tissues were cultured in maintenance media (Mattek, AIR-100-MM) in a 37° C., 5% CO2 humidified incubator. Four donors were tested. On Day 0, tissue cultures were treated with test compounds at 10 μM, 1 μM and/or 0.1 μM. Compounds were diluted in dimethyl sulfoxide (DMSO, Sigma) to a final concentration of 0.1%. DMSO at 0.1% was used as a vehicle control. Test compounds were incubated with cultures for 1 hour at 37° C., 5% CO2, followed by the addition of pre-warmed media containing IFNγ (R&D Systems) or IL-27 (R&D Systems) at a final concentration at 100 ng/ml. Tissue cultures were maintained for 8 days. Media was replaced every 2 days with fresh media containing compounds and IFNγ or IL-27. […] Data is expressed as % Inhibition+/−standard deviation (±STDV). Percent inhibition was determined by compound inhibitory potency against IFNγ or IL-27 induced CXCL10 or CXCL9 secretion compared to vehicle treated cells. […]

`CCc1cc(O)c(F)cc1-c1ccc2c(-c3nc4c([nH]3)CN(C(C)C)[C@H](C(=O)N3CC(N(C)C)C3)C4)n[nH]c2c1` [Example 2, (S)-(3-(dimethylamino)azetidin-1-yl)(2-(6-(2-ethyl-5-fluoro-4-hydroxyphenyl)-1H-indazol-3-yl)-5-isopropyl-4,5,6,7-tetrahydro-3H-imidazo[4,5-c]pyridin-6-yl)methanone] showed an inhibition at 1 µM of 65%.
